Laboratory results: patent publication US12077503B2, “Substituted cyclic amides and their use as herbicides” (FMC CORPORATION, priority 2015, dated 2024)

Assays:
Assay type in all cases: in vivo
[1] = system: ivy-leaved morning glory (Ipomoea hederacea); test: Test G Pre-Emergence Protocol; details: Ipomoea, pre-emergence, 312 h, evaluated after 13 days; for pest or weed control at 15.625 g/ha: 15.625 g ai/ha, read-out: Morning-glory, Ivy-leaved damage rating (100=total damage to plant; 0=no damage to plant); for pest or weed control at 62.5 g/ha: 62.5 g ai/ha, 100=total damage to plant, 0=no damage to plant, read-out: plant damage rating, Morningglory, Ivy-leaved; for pest or weed control at 250 g/ha: 250 g ai/ha, read-out: Morningglory, Ivy-leaved damage rating (100=total damage to plant; 0=no damage to plant)
In short: (§1)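 Test compound in 0.5% Tween 20 acetone/water (50:50) was applied at three rates (15.625, 62.5, 250 g/ha) to soil sown one day earlier. After 13 days plants were scored for injury, where 0 means unaffected and 100 means completely damaged.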

[2] = system: velvetleaf (Abutilon theophrasti); test: Test G Pre-Emergence Protocol; details: Abutilon theophrasti, pre-emergence, 312 h, evaluated after 13 days; for pest or weed control at 15.625 g/ha: 15.625 g ai/ha; for pest or weed control at 15.625 g/ha / pest or weed control at 250 g/ha: read-out: Velvetleaf damage rating (100=total damage to plant; 0=no damage to plant); for pest or weed control at 62.5 g/ha: 62.5 g ai/ha, 100=total damage to plant, 0=no damage to plant, read-out: plant damage rating, Velvetleaf; for pest or weed control at 250 g/ha: 250 g ai/ha
In short: as §1

[3] = system: redroot pigweed (Amaranthus retroflexus); test: Test G Pre-Emergence Protocol; details: Amaranthus retroflexus, pre-emergence, 312 h, evaluated after 13 days; for pest or weed control at 15.625 g/ha: 15.625 g ai/ha; for pest or weed control at 15.625 g/ha / pest or weed control at 250 g/ha: read-out: Pigweed, Redroot damage rating (100=total damage to plant; 0=no damage to plant); for pest or weed control at 62.5 g/ha: 62.5 g ai/ha, 100=total damage to plant, 0=no damage to plant, read-out: plant damage rating, Pigweed, Redroot; for pest or weed control at 250 g/ha: 250 g ai/ha
In short: as §1

[4] = system: giant foxtail (Setaria faberi); test: Test G Pre-Emergence Protocol; details: Setaria faberi, pre-emergence, 312 h, evaluated after 13 days; for pest or weed control at 15.625 g/ha: 15.625 g ai/ha; for pest or weed control at 15.625 g/ha / pest or weed control at 250 g/ha: read-out: Foxtail, Giant damage rating (100=total damage to plant; 0=no damage to plant); for pest or weed control at 62.5 g/ha: 62.5 g ai/ha, 100=total damage to plant, 0=no damage to plant, read-out: plant damage rating, Foxtail, Giant; for pest or weed control at 250 g/ha: 250 g ai/ha
In short: as §1

[5] = system: barnyardgrass (Echinochloa crus-galli); test: Test G Pre-Emergence Protocol; details: Echinochloa crus-galli, pre-emergence, 312 h, evaluated after 13 days; for pest or weed control at 15.625 g/ha: 15.625 g ai/ha, read-out: Barnyard grass damage rating (100=total damage to plant; 0=no damage to plant); for pest or weed control at 62.5 g/ha: 62.5 g ai/ha, 100=total damage to plant, 0=no damage to plant, read-out: plant damage rating, Barnyardgrass; for pest or weed control at 250 g/ha: 250 g ai/ha, read-out: Barnyardgrass damage rating (100=total damage to plant; 0=no damage to plant)
In short: as §1

[6] = system: corn (Zea mays); test: Test G Pre-Emergence Protocol; details: Zea mays, pre-emergence, 312 h, evaluated after 13 days; for plant injury at 15.625 g/ha: 15.625 g ai/ha; for plant injury at 15.625 g/ha / plant injury at 250 g/ha: read-out: Corn damage rating (100=total damage to plant; 0=no damage to plant); for plant injury at 62.5 g/ha: 62.5 g ai/ha, 100=total damage to plant, 0=no damage to plant, read-out: plant damage rating, Corn; for plant injury at 250 g/ha: 250 g ai/ha
In short: as §1

[7] = system: ivy-leaved morning glory (Ipomoea hederacea); test: Test G Post-Emergence Protocol; details: Ipomoea, post-emergence, 312 h; for pest or weed control at 15.625 g/ha: 15.625 g ai/ha, evaluated after 13 days (100=total damage to plant; 0=no damage to plant), read-out: Morningglory, Ivy-leaved damage rating; for pest or weed control at 62.5 g/ha: 62.5 g ai/ha, read-out: Morningglory, Ivy-leaved damage rating (100=total damage to plant; 0=no damage to plant); for pest or weed control at 62.5 g/ha / pest or weed control at 250 g/ha: evaluated after 13 days; for pest or weed control at 250 g/ha: 250 g ai/ha, read-out: damage to plant, Morningglory, Ivy-leaved (100=total damage to plant; 0=no damage to plant)
In short: (§2)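 Damage was rated 13 days after treatment from 0 (none) to 100 (plant killed). Compound was applied as a spray at 15.625, 62.5 or 250 g/ha in 50:50 acetone/water containing 0.5% Tween 20, onto 8-day-old potted plants kept in a glasshouse (24/16 °C, 14 h light, 65% humidity).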

[8] = system: velvetleaf (Abutilon theophrasti); test: Test G Post-Emergence Protocol; details: Abutilon theophrasti, post-emergence, 312 h; for pest or weed control at 15.625 g/ha: 15.625 g ai/ha, evaluated after 13 days (100=total damage to plant; 0=no damage to plant), read-out: Velvetleaf damage rating; for pest or weed control at 62.5 g/ha: 62.5 g ai/ha, read-out: Velvetleaf damage rating (100=total damage to plant; 0=no damage to plant); for pest or weed control at 62.5 g/ha / pest or weed control at 250 g/ha: evaluated after 13 days; for pest or weed control at 250 g/ha: 250 g ai/ha, read-out: damage to plant, Velvetleaf (100=total damage to plant; 0=no damage to plant)
In short: as §2

[9] = system: redroot pigweed (Amaranthus retroflexus); test: Test G Post-Emergence Protocol; details: Amaranthus retroflexus, post-emergence, 312 h; for pest or weed control at 15.625 g/ha: 15.625 g ai/ha, evaluated after 13 days (100=total damage to plant; 0=no damage to plant), read-out: Pigweed, Redroot damage rating; for pest or weed control at 62.5 g/ha: 62.5 g ai/ha, read-out: Pigweed, Redroot damage rating (100=total damage to plant; 0=no damage to plant); for pest or weed control at 62.5 g/ha / pest or weed control at 250 g/ha: evaluated after 13 days; for pest or weed control at 250 g/ha: 250 g ai/ha, read-out: damage to plant, Pigweed, Redroot (100=total damage to plant; 0=no damage to plant)
In short: as §2

[10] = system: giant foxtail (Setaria faberi); test: Test G Post-Emergence Protocol; details: Setaria faberi, post-emergence, 312 h; for pest or weed control at 15.625 g/ha: 15.625 g ai/ha, evaluated after 13 days (100=total damage to plant; 0=no damage to plant), read-out: Foxtail, Giant damage rating; for pest or weed control at 62.5 g/ha: 62.5 g ai/ha, read-out: Foxtail, Giant damage rating (100=total damage to plant; 0=no damage to plant); for pest or weed control at 62.5 g/ha / pest or weed control at 250 g/ha: evaluated after 13 days; for pest or weed control at 250 g/ha: 250 g ai/ha, read-out: damage to plant, Foxtail, Giant (100=total damage to plant; 0=no damage to plant)
In short: as §2

[11] = system: barnyardgrass (Echinochloa crus-galli); test: Test G Post-Emergence Protocol; details: Echinochloa crus-galli, post-emergence, 312 h; for pest or weed control at 15.625 g/ha: 15.625 g ai/ha, evaluated after 13 days (100=total damage to plant; 0=no damage to plant), read-out: Barnyardgrass damage rating; for pest or weed control at 62.5 g/ha: 62.5 g ai/ha, read-out: Barnyardgrass damage rating (100=total damage to plant; 0=no damage to plant); for pest or weed control at 62.5 g/ha / pest or weed control at 250 g/ha: evaluated after 13 days; for pest or weed control at 250 g/ha: 250 g ai/ha, read-out: damage to plant, Barnyardgrass (100=total damage to plant; 0=no damage to plant)
In short: as §2

[12] = system: corn (Zea mays); test: Test G Post-Emergence Protocol; details: Zea mays, post-emergence, 312 h; for plant injury at 15.625 g/ha: 15.625 g ai/ha, evaluated after 13 days (100=total damage to plant; 0=no damage to plant), read-out: Corn damage rating; for plant injury at 62.5 g/ha: 62.5 g ai/ha, read-out: Corn damage rating (100=total damage to plant; 0=no damage to plant); for plant injury at 62.5 g/ha / plant injury at 250 g/ha: evaluated after 13 days; for plant injury at 250 g/ha: 250 g ai/ha, read-out: damage to plant, Corn (100=total damage to plant; 0=no damage to plant)
In short: as §2

`Cc1ccc(NC(=O)[C@H]2C(=O)N(C)C[C@@H]2c2ccc(C(F)(F)F)cc2)nc1` (racemic) [Compound 1484] was tested, and the pest or weed control at 15.625 g/ha [1] was 0%, the pest or weed control at 62.5 g/ha [1] was 0% and the pest or weed control at 250 g/ha [1] was 0%. For the same molecule, the pest or weed control at 15.625 g/ha [2] was 0%, the pest or weed control at 62.5 g/ha [2] was 0% and the pest or weed control at 250 g/ha [2] was 0%. For the same molecule, the pest or weed control at 15.625 g/ha [3] was 0%, the pest or weed control at 62.5 g/ha [3] was 0% and the pest or weed control at 250 g/ha [3] was 20%. The pest or weed control at 15.625 g/ha [4] was 10%, the pest or weed control at 62.5 g/ha [4] was 10% and the pest or weed control at 250 g/ha [4] was 30%. It also gave a pest or weed control at 15.625 g/ha [5] of 0%, a pest or weed control at 62.5 g/ha [5] of 10% and a pest or weed control at 250 g/ha [5] of 30%. For the same molecule, the plant injury at 15.625 g/ha [6] was 20%, the plant injury at 62.5 g/ha [6] was 10% and the plant injury at 250 g/ha [6] was 30%. The pest or weed control at 15.625 g/ha [7] was 0%, the pest or weed control at 62.5 g/ha [7] was 0% and the pest or weed control at 250 g/ha [7] was 0%. It also gave a pest or weed control at 15.625 g/ha [8] of 0%, a pest or weed control at 62.5 g/ha [8] of 0% and a pest or weed control at 250 g/ha [8] of 10%. It also gave a pest or weed control at 15.625 g/ha [9] of 10%, a pest or weed control at 62.5 g/ha [9] of 0% and a pest or weed control at 250 g/ha [9] of 20%. The pest or weed control at 15.625 g/ha [10] was 10%, the pest or weed control at 62.5 g/ha [10] was 10% and the pest or weed control at 250 g/ha [10] was 30%. The pest or weed control at 15.625 g/ha [11] was 20%, the pest or weed control at 62.5 g/ha [11] was 20% and the pest or weed control at 250 g/ha [11] was 40%. The plant injury at 15.625 g/ha [12] was 20%, the plant injury at 62.5 g/ha [12] was 0% and the plant injury at 250 g/ha [12] was 30%.

Work on `Cc1cnc(NC(=O)[C@@H]2C(=O)N(C)C[C@H]2c2ccc(C(F)(F)F)cc2)s1` (racemic) [Compound 1570] yielded a pest or weed control at 15.625 g/ha [1] of 0%, a pest or weed control at 62.5 g/ha [1] of 0% and a pest or weed control at 250 g/ha [1] of 0%. For the same molecule, the pest or weed control at 15.625 g/ha [2] was 0%, the pest or weed control at 62.5 g/ha [2] was 0% and the pest or weed control at 250 g/ha [2] was 0%. The pest or weed control at 15.625 g/ha [3] was 0%, the pest or weed control at 62.5 g/ha [3] was 0% and the pest or weed control at 250 g/ha [3] was 0%. For the same molecule, the pest or weed control at 15.625 g/ha [4] was 0%, the pest or weed control at 62.5 g/ha [4] was 0% and the pest or weed control at 250 g/ha [4] was 0%. It also gave a pest or weed control at 15.625 g/ha [5] of 0%, a pest or weed control at 62.5 g/ha [5] of 0% and a pest or weed control at 250 g/ha [5] of 0%. It also gave a plant injury at 15.625 g/ha [6] of 0%, a plant injury at 62.5 g/ha [6] of 0% and a plant injury at 250 g/ha [6] of 0%. It also gave a pest or weed control at 15.625 g/ha [7] of 0%, a pest or weed control at 62.5 g/ha [7] of 0% and a pest or weed control at 250 g/ha [7] of 10%. It also gave a pest or weed control at 15.625 g/ha [8] of 0%, a pest or weed control at 62.5 g/ha [8] of 0% and a pest or weed control at 250 g/ha [8] of 0%. The pest or weed control at 15.625 g/ha [9] was 0%, the pest or weed control at 62.5 g/ha [9] was 0% and the pest or weed control at 250 g/ha [9] was 0%. The pest or weed control at 15.625 g/ha [10] was 0%, the pest or weed control at 62.5 g/ha [10] was 0% and the pest or weed control at 250 g/ha [10] was 20%. It also gave a pest or weed control at 15.625 g/ha [11] of 0%, a pest or weed control at 62.5 g/ha [11] of 0% and a pest or weed control at 250 g/ha [11] of 10%. The plant injury at 15.625 g/ha [12] was 0%, the plant injury at 62.5 g/ha [12] was 0% and the plant injury at 250 g/ha [12] was 0%.
